Here are results for two compounds from patent US20230285570A1, “THERAPEUTICALLY USEFUL CURE-PRO MOLECULES FOR E3 LIGASE MEDIATED DEGRADATION OF PROTEINS, AND METHODS OF MAKING AND USING THEM” (CORNELL UNIVERSITY, priority 2020, published 2023).

“Also recorded” adds a separate entry of the source.

Format in all cases: cell-based
Test [1] deals with T1, BRD4 (Homo sapiens, UniProt O60885). As to the kind of experiment: CURE-PRO-mediated BRD4 degradation in HeLa cells, Western blot. On the set-up: endogenous in cells; host or cells: HeLa. Conditions: 24 h. An outline of the steps:
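HeLa cells (2.5×10^6) treated 24 h with DMSO-solubilized compounds, degrader pairs combined 1:1, at 1 nM-1 μM, 1-10 μM, 10 μM or 10 and 100 μM each depending on series. RIPA lysates (10-20 μg protein) run on SDS-PAGE and immunoblotted for BRD4 with ECL detection.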
(In general: A western blot detects proteins with antibodies after separation by electrophoresis.)

Test [2] concerns the target T1, BRD4. As to the kind of experiment: CURE-PRO-mediated BRD4 degradation in HCT116 cells, WES (ProteinSimple). Also on record: endogenous in cells. How it is done:
All cell lines were purchased from ATCC or DSMZ and grown at 37° C. with 5% CO2. Human HeLa cells were cultured in complete growth medium (Dulbecco's modified Eagle's medium (DMEM) supplemented with 10% FBS); MCF7 cells were cultured in complete growth medium (Dulbecco's modified Eagle's medium (DMEM) supplemented with 10% FBS and 0.01 mg/ml human recombinant insulin (Sigma Aldrich); Namalwa and Ramos cells were cultured in complete growth medium (RPMI 1640 medium supplemented with 10% FBS); HCT116 and HT29 cells were cultured in complete growth medium (McCoy's 5a Medium supplemented with 10% FBS). For cellular degradation of BRD4 studies cells were seeded in a 12-well plate at 70-80% confluency, allowed to attach overnight, and incubated with the indicated compounds for the indicated time. When indicated, a 15-minute pretreatment with 10 μM pomalidomide, 10 μM VHL298, 10 μM Nutlin3a, 1 μM MG-132 or 1 μM Carfilzomib was performed before the addition of CURE-PROs. For washout studies, after CURE-PRO treatment, media was aspirated and incubated with complete medium for the indicated time before lysis.
WES Simple analysis was performed on WES system (ProteinSimple-Biotechne) according to the manufacturer's instructions. Total protein concentrations of cell lysates were determined by the Pierce BCA kit (Thermo Fisher). 3 μL of 0.3 μg/μL of the protein lysate was loaded onto a 12- to 230-kDa WES assay plate (ProteinSimple) where 300 nL sample was withdrawn through a capillary, subjected to electrophoretic separation of proteins by size, and followed by the simultaneous, HRP-based detection of proteins using the Anti-Rabbit Detection Module (Proteinsimple: #DM-001). The electropherograms were checked then the automatic peak detection was manually corrected if it was required.
HCT116 cells (3×10^6) were treated for 24 hours with the compounds solubilized in DMSO. Compounds were added at 1 μM-10 μM each. Standardized protein samples were electrophoresed and imaged as described in the WES ProteinSimple section above. FIGS. 59, 60, and 61 depict the concentration-dependence of CURE-PRO-mediated BRD4 degradation using MDM2 ligands.
HCT116 cells (3×10^6) were treated for 24 hours with the compounds solubilized in DMSO. Compounds were added at 1 μM-10 μM each. Standardized protein samples were electrophoresed and imaged as described in the WES ProteinSimple section above. FIGS. 62 and 63 depict the concentration-dependence of CURE-PRO-mediated BRD4 degradation using MDM2 ligands.
HCT116 cells (3×10^6) were treated for 24 hours with the compounds solubilized in DMSO. CURE-PRO monomers were added at 10 μM each and the proteasomal inhibitors at 1 μM. Standardized protein samples were electrophoresed and imaged as described in the WES ProteinSimple section above. FIG. 68 depicts the dependence of the proteasome for CURE-PRO-mediated BRD4 degradation.

Test [3] addresses T1, BRD4. As to the kind of experiment: Summary of BRD4 degradation by CURE-PRO pairs, estimated from Western Blot or WES. On the set-up: endogenous in cells. An outline of the steps:
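Namalwa, Ramos, HeLa, MCF7, HT29 or HCT116 cells treated 24 h with compounds in DMSO; RIPA lysates analysed by Western blot (ECL) or capillary WES immunodetection. Check mark denotes 30% to 70% or higher protein degradation.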

For `CCNC(=O)C[C@@H]1N=C(c2ccc(Cl)cc2)c2cc(OCCOCCNC(=O)c3cccc(O)c3O)ccc2-n2c(C)nnc21` [BRD-N39, N-(2-(2-(((4S)-6-(4-chlorophenyl)-4-(2-(ethylamino)-2-oxoethyl)-1-methyl-4H-benzo[f][1,2,4]triazolo[4,3-a][1,4]diazepin-8-yl)oxy)ethoxy)ethyl)-2,3-dihydroxybenzamide], the BRD4 degradation entry at BRD4 [1] (BRD4 monomer alone, HeLa, 1-10 μM) is on record as “there is no degradation of BRD4”; on BRD4 [1] (co-treated 1:1 with CRBN ligand 8048, HeLa, 1-10 μM each), “causes degradation of BRD4; also recorded: Degradation is noted”; on BRD4 [1] (co-treated 1:1 with CRBN ligand 8049, HeLa, 1-10 μM each) it was “no evidence of BRD4 degradation”; at BRD4 [2] (1:1 with MDM2 ligand 8310, HCT116, 24 h, 10 μM), “caused BRD4 degradation”; at BRD4 [2] (1:1 with MDM2 ligand 8312, HCT116, 24 h, 10 μM), “caused BRD4 degradation”. For the same compound, the “Degradation of BRD4, combination with CRBN ligand 8048” value on BRD4 [3] (Table 4, aromatic 1,2-diol BRD4 ligand + 8048) is listed as “√ (A black check mark indicates efficacy of 30% to 70% or higher protein degradation)”. In addition, the “Degradation of BRD4, combination with MDM2 ligand 8310” value at BRD4 [3] (Table 5, aromatic 1,2-diol BRD4 ligand + 8310) is listed as “√ (A black check mark indicates efficacy of 30% to 70% or higher protein degradation)”. On BRD4 [3] (Table 5, aromatic 1,2-diol BRD4 ligand + 8312), the “Degradation of BRD4, combination with MDM2 ligand 8312” value is given as “√ (A black check mark indicates efficacy of 30% to 70% or higher protein degradation)”.

As for `CCNC(=O)C[C@@H]1N=C(c2ccc(Cl)cc2)c2cc(OCCCCC(=O)Nc3cccc(B(O)O)c3)ccc2-n2c(C)nnc21` [BRD-E20, (3-(5-(((4S)-6-(4-chlorophenyl)-4-(2-(ethylamino)-2-oxoethyl)-1-methyl-4H-benzo[f][1,2,4]triazolo[4,3-a][1,4]diazepin-8-yl)oxy)pentanamido)phenyl)boronic acid], the BRD4 degradation result at BRD4 [1] (co-treated 1:1 with CRBN ligand 8046, HeLa, 10 μM each) is reported as “causes degradation of BRD4; also recorded: Degradation is noted”; at BRD4 [1] (co-treated 1:1 with CRBN ligand 8066, HeLa, 10 μM each) it was “causes degradation of BRD4; also recorded: Degradation is noted”; on BRD4 [2] (1:1 with MDM2 ligand 8313, HCT116, 24 h, 1 μM-10 μM each), “had no effect on BRD4 protein levels”; on BRD4 [2] (1:1 with MDM2 ligand 8314, HCT116, 24 h, 1 μM-10 μM each), “caused partial loss of the BRD4 protein; also recorded: Degradation is observed”. The “Degradation of BRD4, combination with CRBN ligand 8046” value at BRD4 [3] (Table 1, aryl-boronic acid BRD4 ligand + 8046) was “√ (A black check mark indicates efficacy of 30% to 70% or higher protein degradation)”. On BRD4 [3] (Table 1, aryl-boronic acid BRD4 ligand + 8066), the “Degradation of BRD4, combination with CRBN ligand 8066” value is “√ (A black check mark indicates efficacy of 30% to 70% or higher protein degradation)”. The “Degradation of BRD4, combination with MDM2 ligand 8313” value on BRD4 [3] (Table 2, aryl-boronic acid BRD4 ligand + 8313) is reported as “√ (A black check mark indicates efficacy of 30% to 70% or higher protein degradation)”. The “Degradation of BRD4, combination with MDM2 ligand 8314” value on BRD4 [3] (Table 2, aryl-boronic acid BRD4 ligand + 8314) was “√ (A black check mark indicates efficacy of 30% to 70% or higher protein degradation)”. For the same compound, the “Degradation of BRD4, combination with VHL ligand 8305” value on BRD4 [3] (Table 3, aryl-boronic acid BRD4 ligand + 8305) is recorded as “√ (A black check mark indicates efficacy of 30% to 70% or higher protein degradation)”.
